Measurements from ChEMBL document CHEMBL3885861, “Open TG-GATES”.

Species: Rattus norvegicus
Assay: Open TG-GATES - Regimen: Daily Repeat
Type: toxicity, organism-based, Sprague-Dawley
Parameters: regimen Daily Repeat, gender Male, age 6 weeks
Details: in vivo, po, 2 mg/kg, route gavage, dose level Middle; for APTT / Bas / Eos / Fbg / Hb / Ht / Lym / MCH / MCHC / MCV / Mono / Neu / PT / Plat / RBC / Ret / WBC: tissue Blood; for KIDNEY_L / KIDNEY_R / KIDNEY_TOTAL: tissue Kidney; for LIVER: tissue Liver; for A/G / ALP / ALT / AST / BUN / CRE / Ca / Cl / DBIL / GLC / IP / K / LDH / Na / PL / RALB / TBIL / TC / TG / TP / gamma-GTP: tissue Plasma

O=NN(CCCl)C(=O)NC1CCCCC1 [LOMUSTINE]
TERMINAL_BW (72 h, time 3 day): 220 g
APTT (72 h, time 3 day): 16.8 s
Bas (72 h, time 3 day): 0%
Eos (72 h, time 3 day): 0.8%
Fbg (72 h, time 3 day): 231.8 mg/dL
Hb (72 h, time 3 day): 13.3 g/dL
Ht (72 h, time 3 day): 39.9%
Lym (72 h, time 3 day): 82.4%
MCH (72 h, time 3 day): 21.1 pg
MCHC (72 h, time 3 day): 33.2%
MCV (72 h, time 3 day): 63.7 fL
Mono (72 h, time 3 day): 7.4%
Neu (72 h, time 3 day): 9.6%
PT (72 h, time 3 day): 11.7 s
Plat (72 h, time 3 day): 108 x10_4/uL
RBC (72 h, time 3 day): 628 x10_4/ul
Ret (72 h, time 3 day): 6.9%
WBC (72 h, time 3 day): 109.9 x10_2/uL
KIDNEY_L (72 h, time 3 day): 1 g
KIDNEY_R (72 h, time 3 day): 1 g
KIDNEY_TOTAL (72 h, time 3 day): 2 g
LIVER (72 h, time 3 day): 11.4 g
A/G (72 h, time 3 day): 2
ALP (72 h, time 3 day): 962.6 IU/L
ALT (72 h, time 3 day): 29.8 IU/L
AST (72 h, time 3 day): 59.4 IU/L
BUN (72 h, time 3 day): 17 mg/dL
CRE (72 h, time 3 day): 0.4 mg/dL
Ca (72 h, time 3 day): 11 mg/dL
Cl (72 h, time 3 day): 105.8 meq/L
DBIL (72 h, time 3 day): 0.01 mg/dL
GLC (72 h, time 3 day): 186.2 mg/dL
IP (72 h, time 3 day): 7.9 mg/dL
K (72 h, time 3 day): 4.7 meq/L
LDH (72 h, time 3 day): 84 IU/L
Na (72 h, time 3 day): 139.4 meq/L
PL (72 h, time 3 day): 152.8 mg/dL
RALB (72 h, time 3 day): 4 g/dL
TBIL (72 h, time 3 day): 0.4 mg/dL
TC (72 h, time 3 day): 83.2 mg/dL
TG (72 h, time 3 day): 100.8 mg/dL
TP (72 h, time 3 day): 5.9 g/dL
gamma-GTP (72 h, time 3 day): 1.4 IU/L
TERMINAL_BW ([…], time 7 day): 246.4 g
TERMINAL_BW ([…], time 14 day): 298.5 g
TERMINAL_BW ([…], time 28 day): 364.6 g
APTT ([…], time 7 day): 15.6 s
Bas ([…], time 7 day): 0%
Eos ([…], time 7 day): 1%
Fbg ([…], time 7 day): 246.8 mg/dL
Hb ([…], time 7 day): 13.9 g/dL
Ht ([…], time 7 day): 42%
Lym ([…], time 7 day): 80%
MCH ([…], time 7 day): 21 pg
MCHC ([…], time 7 day): 33.3%
MCV ([…], time 7 day): 63.2 fL
Mono ([…], time 7 day): 7.4%
Neu ([…], time 7 day): 11.6%
PT ([…], time 7 day): 11.4 s
Plat ([…], time 7 day): 98.8 x10_4/uL
RBC ([…], time 7 day): 664.2 x10_4/ul
Ret ([…], time 7 day): 5.1%
WBC ([…], time 7 day): 103.8 x10_2/uL
APTT ([…], time 14 day): 16.4 s
Bas ([…], time 14 day): 0%
Eos ([…], time 14 day): 0.6%
Fbg ([…], time 14 day): 228.4 mg/dL
Hb ([…], time 14 day): 14.3 g/dL
Ht ([…], time 14 day): 42.9%
Lym ([…], time 14 day): 81.8%
MCH ([…], time 14 day): 20.3 pg
MCHC ([…], time 14 day): 33.2%
MCV ([…], time 14 day): 61.2 fL
Mono ([…], time 14 day): 5.8%
Neu ([…], time 14 day): 11.8%
PT ([…], time 14 day): 11.4 s
Plat ([…], time 14 day): 129.2 x10_4/uL
RBC ([…], time 14 day): 701.8 x10_4/ul
Ret ([…], time 14 day): 4.3%
WBC ([…], time 14 day): 127.6 x10_2/uL
APTT ([…], time 28 day): 16 s
Bas ([…], time 28 day): 0%
Eos ([…], time 28 day): 1%
Fbg ([…], time 28 day): 230.4 mg/dL
Hb ([…], time 28 day): 14.9 g/dL
Ht ([…], time 28 day): 44.4%
Lym ([…], time 28 day): 80%
MCH ([…], time 28 day): 19 pg
MCHC ([…], time 28 day): 33.5%
MCV ([…], time 28 day): 56.9 fL
Mono ([…], time 28 day): 7.6%
Neu ([…], time 28 day): 11.6%
PT ([…], time 28 day): 11.3 s
Plat ([…], time 28 day): 113.9 x10_4/uL
RBC ([…], time 28 day): 780.6 x10_4/ul
Ret ([…], time 28 day): 2.5%
WBC ([…], time 28 day): 145.6 x10_2/uL
KIDNEY_L ([…], time 7 day): 1 g
KIDNEY_R ([…], time 7 day): 1 g
KIDNEY_TOTAL ([…], time 7 day): 2 g
KIDNEY_L ([…], time 14 day): 1.2 g
KIDNEY_R ([…], time 14 day): 1.2 g
KIDNEY_TOTAL ([…], time 14 day): 2.5 g
KIDNEY_L ([…], time 28 day): 1.4 g
KIDNEY_R ([…], time 28 day): 1.4 g
KIDNEY_TOTAL ([…], time 28 day): 2.7 g
LIVER ([…], time 7 day): 13 g
LIVER ([…], time 14 day): 14.1 g
LIVER ([…], time 28 day): 16.6 g
A/G ([…], time 7 day): 1.7
ALP ([…], time 7 day): 976.4 IU/L
ALT ([…], time 7 day): 47.2 IU/L
AST ([…], time 7 day): 85.8 IU/L
BUN ([…], time 7 day): 19.6 mg/dL
CRE ([…], time 7 day): 0.4 mg/dL
Ca ([…], time 7 day): 11.2 mg/dL
Cl ([…], time 7 day): 105.8 meq/L
DBIL ([…], time 7 day): 0.016 mg/dL
GLC ([…], time 7 day): 181.8 mg/dL
IP ([…], time 7 day): 7.7 mg/dL
K ([…], time 7 day): 4.6 meq/L
LDH ([…], time 7 day): 87 IU/L
Na ([…], time 7 day): 139.8 meq/L
PL ([…], time 7 day): 169.6 mg/dL
RALB ([…], time 7 day): 3.8 g/dL
TBIL ([…], time 7 day): 0.3 mg/dL
TC ([…], time 7 day): 98.8 mg/dL
TG ([…], time 7 day): 95.6 mg/dL
TP ([…], time 7 day): 6.1 g/dL
gamma-GTP ([…], time 7 day): 2.2 IU/L
A/G ([…], time 14 day): 2.1
ALP ([…], time 14 day): 822.6 IU/L
ALT ([…], time 14 day): 36.2 IU/L
AST ([…], time 14 day): 66.8 IU/L
BUN ([…], time 14 day): 17.4 mg/dL
CRE ([…], time 14 day): 0.5 mg/dL
Ca ([…], time 14 day): 11.4 mg/dL
Cl ([…], time 14 day): 106.4 meq/L
DBIL ([…], time 14 day): 0.032 mg/dL
GLC ([…], time 14 day): 183.8 mg/dL
IP ([…], time 14 day): 7.3 mg/dL
K ([…], time 14 day): 4.6 meq/L
LDH ([…], time 14 day): 94.8 IU/L
Na ([…], time 14 day): 140.2 meq/L
PL ([…], time 14 day): 166 mg/dL
RALB ([…], time 14 day): 4.1 g/dL
TBIL ([…], time 14 day): 0.3 mg/dL
TC ([…], time 14 day): 77.2 mg/dL
TG ([…], time 14 day): 136 mg/dL
TP ([…], time 14 day): 6.1 g/dL
gamma-GTP ([…], time 14 day): 2.4 IU/L
A/G ([…], time 28 day): 1.7
ALP ([…], time 28 day): 637.8 IU/L
ALT ([…], time 28 day): 61.4 IU/L
AST ([…], time 28 day): 115.8 IU/L
BUN ([…], time 28 day): 19.6 mg/dL
CRE ([…], time 28 day): 0.4 mg/dL
Ca ([…], time 28 day): 11.1 mg/dL
Cl ([…], time 28 day): 106.8 meq/L
DBIL ([…], time 28 day): 0.054 mg/dL
GLC ([…], time 28 day): 186.6 mg/dL
IP ([…], time 28 day): 6.3 mg/dL
K ([…], time 28 day): 4.5 meq/L
LDH ([…], time 28 day): 163 IU/L
Na ([…], time 28 day): 139.8 meq/L
PL ([…], time 28 day): 192.4 mg/dL
RALB ([…], time 28 day): 4.1 g/dL
TBIL ([…], time 28 day): 0.3 mg/dL
TC ([…], time 28 day): 106.6 mg/dL
TG ([…], time 28 day): 85.4 mg/dL
TP ([…], time 28 day): 6.5 g/dL
gamma-GTP ([…], time 28 day): 3.6 IU/L
